Experimental data: US10947243B2, “Heteroaryl SYK inhibitors” (Boehringer Ingelheim International GmbH, priority 2014, dated 2021)

Tests used:
[1] = target: Recombinant human Syk (amino acids 342-635) (Homo sapiens (Human), UniProt P43405); experiment: Syk Kinase Test (Kinase Glo luminescence); format: biochemical; settings: comparison compounds, Example numbers of WO 2013/014060; read-out: IC50 in μM (SYK-Inhibition)
Procedure: (§1) The output file of the reader is a csv file that contains the well number and measured relative light units (RLU). For data evaluation and calculation, the measurement of the negative control was set as 100% ctrl and the measurement of the positive control was set as 0% ctrl. Based on this values the % value for the measurement of each substance concentration was calculated using an Assay Explorer software (Accelrys). Normally, the % ctrl values calculated are between 0% and 100% values but may also occur outside these limits in individual cases based on variability or compound characteristics. The IC50 values were calculated from the % ctrl values using Assay Explorer software. Calculation: [y=(a−d)/(1+(x/c)^b)+d] a=low value, d=high value; x=conc M; c=IC50 M; b=hill; y=% ctrl.

Human GSK3beta = Human GSK3beta (Homo sapiens (Human), UniProt P49841); experiment: GSK 3β Kinase-Test (Z'-LYTE); format: biochemical; settings: comparison compounds, Example numbers of WO 2013/014060; read-out: IC50 in μM (GSK3beta-Inhibition)
Procedure: Human GSK3beta (expressed and prified from SF21 cells) is obtained from the University Dundee/Scotland (Dr. James Hastie—Dept. of Biochemistry) in 50 mM Tris (pH7.5); 150 mM NaCl; 0.1 mM EGTA, 270 mM Succrose, 0.1% B-mercaptoethanol, 1 mM benzamidine, 0.2 mM PMSF; sequence see below). The enzyme is diluted to 3.56 μM (168 μg/ml) in enzyme dilution buffer and 6 μl aliquots are stored at −80° C.
The activity of GSK3 kinase protein is measured using the Z′-LYTE™ assay technology from Invitrogen (# PV3324).
The assay is performed in 384 black plates from Corning (#3676) in a final volume of 10 μl by adding 5 μl of kinase peptide mix and 2.5 μl of compound dilution. The reaction is started by addition of 2.5 μl of the 4×ATP solution.
Positive controls are reaction mixtures containing no test compound; negative controls (blanks) are reaction mixtures containing no ATP. As a further control, the phosphopeptide solution is added to wells without kinase and without ATP (=100% phosphorylation control). The non inhibited kinase reaction will result in a phosphorylation corresponding to 20%-30% of the phosphorylation control.
The reaction is performed 1 h at room temperature. After 1 h 5 μl of the development solution is added. After a further incubation for 1 h at room temperature 5 μl of the stop reagent is added. Finally the plates are read on a Flex Station II 384 (Molecular Devices).
The output text file is evaluated in an “MS-Excel-VB-Makro” and “GraphPadPrism” (Version 5) (GraphPad Software Inc.) is used to calculate the results. Data for the inhibition of GSK3beta are reported in M. data for the inhibition of the protease are reported in % CTL.

FLT3 = FLT3 (Homo sapiens (Human), UniProt P36888); experiment: FLT3 Kinase Test (Z'-LYTE); format: biochemical; settings: comparison compounds, Example numbers of WO 2013/014060; read-out: IC50 in μM (FLT3-Inhibition)
Procedure: The activity of FLT3 is measured using the Z′-LYTE™ assay technology from Invitrogen (#PV3191)
The reaction is started by addition of 2.5 μl of the 4×ATP solution.
Positive controls are reaction mixtures containing no test compound; negative controls (blanks) are reaction mixtures containing no kinase. As a further control, the phosphopeptide solution is added to wells without kinase (=100% phosphorylation control).
The reaction is performed for 1 h at room temperature before 5 μl of the development solution is added. After a further incubation for 1 h at room temperature 5 μl of the stop reagent is added.
The output text file is evaluated in an “MS-Excel-VB-Makro” and “GraphPadPrism” (Version 5) (GraphPad Software Inc.) is used to calculate the results. Data for the inhibition of FLT3 are reported in M. data for the inhibition of the protease are reported in % CTL.

[2] = Human Liver Microsomal Stability Test; format: in vitro ADME; settings: human liver microsomes; comparison compounds, Example numbers of WO 2013/014060
Procedure: The metabolic degradation for a specific SYK-inhibitor is performed at 37° C. with pooled human liver microsomes (human liver microsomes are commercially available as “BD UltraPool™” by Corning Life Sciences, Fogostraat 12, 1060 LJ Amsterdam, The Netherlands). The final incubation volume of 100 μl per time point contains TRIS buffer pH 7.6 at RT (0.1 M), magnesium chloride (5 mM), microsomal protein (1 mg/ml) and the test compound at a final concentration of 1 μM.
Following a short preincubation period at 37° C., the reaction is initiated by addition of beta-nicotinamide adenine dinucleotide phosphate in its reduced form (NADPH, 1 mM) and terminated by transfering an aliquot into solvent after different time points. Additionally, the NADPH-independent degradation is monitored in incubations without NADPH, terminated at the last time point.
The quenched (terminated) incubations are then pelleted by centrifugation (10000 g, 5 min).
An aliquot of the supernatant is assayed by LC-MS/MS for the remaining amount of parent compound. The half-life (t½ INVITRO) is determined by the slope of the semilogarithmic plot of the concentration-time profile.
The intrinsic clearance (CL_[…]) is calculated by considering the amount of protein in the incubation: CL_[…] [μl/min/mg protein]=(Ln 2/(t½INVITRO [min]*protein content [mg/ml]))*1000
The protein content [mg/ml] was determined with the “Bicinchoninic Acid Kit” of Sigma Aldrich (commercially available).
The upscaled intrinsic Clearance (CL_UP_INT) is calcuated by considering the liver weight [g liver/kg body weight] and the microsomal recovery [mg protein/g liver]: CL_UP_INT [ml/min/kg]=0.001*CL_[…]*liver weight*microsomal recovery • with microsomal recovery=45 mg protein/g liver • with liver weight=25.7 g liver/kg body weight
The percent hepatic blood flow (% Qh) is finally calculated by considering the human liver blood flow Q [ml/min/kg]: % Qh [%]=((Q*CL_UP_INT)/(Q+CL_UP_INT)/Q)*100 • with liver blood flow (Q)=20.7 ml/min/kg.

[3] = target: Recombinant human Aurora B (amino acids 1-344) (Homo sapiens (Human), UniProt Q96GD4); experiment: Aurora B Kinase Test (ADP Glo luminescence); format: biochemical; settings: comparison compounds, Example numbers of WO 2013/014060; read-out: IC50 in μM (AURB-Inhibition)
Procedure: The activity of the Aurora B kinase protein was determined using the ADP Glo® Luminescence Kinase test (Promega; V9103X).
Serial Dilution is done in 1:10 steps in 100% DMSO.
Then 20 μl Kinase detection mix (Detection Buffer #V913B Promega; Kinase Detection Substrate #V914B Promega) were added and incubated for 40 minutes at room temperature.
as §1, with “measured RLU.” for “measured relative light units (RLU).”, “as 0%” for “as 100%”, “as 100%” for “as 0%”, “Calculation: [y=(a−d)/(1+(x/c)^b)+d],” for “Calculation: [y=(a−d)/(1+(x/c)^b)+d]”

Sequence of FLT3 (P36888 564-958): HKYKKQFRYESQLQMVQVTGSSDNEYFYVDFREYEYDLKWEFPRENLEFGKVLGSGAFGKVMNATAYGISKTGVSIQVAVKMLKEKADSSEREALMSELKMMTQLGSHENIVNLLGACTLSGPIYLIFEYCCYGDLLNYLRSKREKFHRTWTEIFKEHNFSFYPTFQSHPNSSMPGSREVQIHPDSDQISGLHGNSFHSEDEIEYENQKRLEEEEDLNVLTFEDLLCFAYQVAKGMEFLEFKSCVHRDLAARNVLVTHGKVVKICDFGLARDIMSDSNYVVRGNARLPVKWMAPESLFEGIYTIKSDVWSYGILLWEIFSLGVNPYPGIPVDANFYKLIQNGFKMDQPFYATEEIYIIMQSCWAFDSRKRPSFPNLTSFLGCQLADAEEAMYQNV
Sequence of Recombinant human Aurora B (amino acids 1-344) (Q96GD4 whole entry, the tested form may be a part): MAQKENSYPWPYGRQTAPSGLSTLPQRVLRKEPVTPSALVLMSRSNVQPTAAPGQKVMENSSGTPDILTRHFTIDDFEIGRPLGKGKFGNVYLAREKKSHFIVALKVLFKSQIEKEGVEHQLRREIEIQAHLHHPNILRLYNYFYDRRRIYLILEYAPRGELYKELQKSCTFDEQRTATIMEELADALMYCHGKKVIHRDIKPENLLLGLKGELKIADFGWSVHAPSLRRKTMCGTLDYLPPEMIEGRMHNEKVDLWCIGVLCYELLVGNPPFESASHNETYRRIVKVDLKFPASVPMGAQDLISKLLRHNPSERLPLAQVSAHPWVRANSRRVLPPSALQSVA
Sequence of Human GSK3beta (P49841 whole entry): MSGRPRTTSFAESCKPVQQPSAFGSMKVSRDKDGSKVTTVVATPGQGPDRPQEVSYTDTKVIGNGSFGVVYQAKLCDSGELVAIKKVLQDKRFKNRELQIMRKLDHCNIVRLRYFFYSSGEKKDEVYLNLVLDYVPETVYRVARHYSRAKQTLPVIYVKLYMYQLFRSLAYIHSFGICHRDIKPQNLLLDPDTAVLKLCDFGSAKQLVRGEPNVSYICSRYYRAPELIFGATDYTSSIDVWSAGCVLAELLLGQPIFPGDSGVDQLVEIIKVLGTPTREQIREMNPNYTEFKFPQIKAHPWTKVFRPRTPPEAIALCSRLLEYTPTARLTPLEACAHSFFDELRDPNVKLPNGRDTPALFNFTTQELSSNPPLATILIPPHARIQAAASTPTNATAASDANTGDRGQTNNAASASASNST

IC50 [1]	IC50 (Human GSK3beta)	IC50 (FLT3)	microsomal stability Cl [% Qh] [2]	IC50 [3]	Compound
0.0002 µM	> 10 µM	0.041 µM	<23 % Qh	0.021 µM	CC(C)n1cc(-c2cc(O[C@H](C)[C@H]3CNC(=O)C3)c3cccnc3c2)cn1 [compound 115]
0.002 µM	> 10 µM	0.738 µM	24 % Qh	0.752 µM	C[C@@H](Oc1nc(-c2cc3nn(C)cc3c(O[C@H](C)[C@H]3CNC(=O)C3)n2)cc2nn(C)cc12)[C@@H]1CNC(=O)C1 [Example 11, (4S)-4-[(1R)-1-[2-methyl-6-[2-methyl-4-[(1R)-1-[(3R)-5-oxopyrrolidin-3-yl]ethoxy]-pyrazolo[4,3-c]pyridin-6-yl]pyrazolo[4,3-c]pyridin-4-yl]oxyethyl]pyrrolidin-2-one]
